Key:
Type in all cases: in vivo
[1] = test system: Stellaria media; assay: Herbicidal action post-emergence, greenhouse pot test
Summary of the method: (§1)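 Test plants, treated at the one-leaf stage 2 to 3 weeks after sowing in sandy loam, received a foliar spray at 80 g/ha or lower. Visual damage was rated about 3 weeks later as percent efficacy versus untreated plants.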

[2] = test system: Hordeum murinum; assay: as above
Summary of the method: as §1

[3] = test system: Setaria viridis; assay: as above
Summary of the method: as §1

[4] = test system: Pharbitis purpurea; assay: as above
Summary of the method: as §1

[5] = test system: Echinochloa crus-galli; assay: as above
Summary of the method: as §1

[6] = test system: Polygonum convolvulus; assay: as above
Summary of the method: as §1

[7] = test system: Abutilon theophrasti; assay: as above
Summary of the method: as §1

[8] = test system: Lolium rigidum; assay: as above
Summary of the method: as §1

[9] = test system: Veronica persica; assay: as above
Summary of the method: as §1

[10] = test system: Amaranthus retroflexus; assay: as above
Summary of the method: as §1

[11] = test system: Viola tricolor; assay: as above
Summary of the method: as §1

[12] = test system: Matricaria inodora; assay: as above
Summary of the method: as §1

[13] = test system: Triticum aestivum; assay: Crop compatibility post-emergence, greenhouse pot test
Summary of the method: (§2)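 Pot-grown plants in sandy loam, greenhouse, sprayed post-emergence at the one-leaf stage (2–3 weeks after sowing) with WP or EC formulations as aqueous spray plus 0.5% additive at 600 L/ha. Damage scored visually after about 3 weeks versus untreated controls, in % (0% = like control, 100% = dead).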

[14] = test system: Stellaria media; assay: Herbicidal action pre-emergence, greenhouse pot test
Summary of the method: (§3)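 Under good greenhouse growth conditions, treated pots are compared visually with untreated ones about three weeks after spraying; the score runs from 0% (like control) to 100% (plants died). Treatment was a WP or EC spray to the soil over sown seeds, at up to 320 g/ha.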

[15] = test system: Hordeum murinum; assay: as above; conditions: application rate 320 g/ha
Summary of the method: as §3

[16] = test system: Setaria viridis; assay: as above
Summary of the method: as §3

[17] = test system: Pharbitis purpurea; assay: as above
Summary of the method: as §3

[18] = test system: Echinochloa crus-galli; assay: as above; conditions: application rate 320 g/ha
Summary of the method: as §3

[19] = test system: Polygonum convolvulus; assay: as above
Summary of the method: as §3

[20] = test system: Abutilon theophrasti; assay: as above
Summary of the method: as §3

[21] = test system: Lolium rigidum; assay: as above
Summary of the method: as §3

[22] = test system: Veronica persica; assay: as above
Summary of the method: as §3

[23] = test system: Amaranthus retroflexus; assay: as above
Summary of the method: as §3

[24] = test system: Viola tricolor; assay: as above
Summary of the method: as §3

[25] = test system: Alopecurus myosuroides; assay: as above; conditions: application rate 320 g/ha
Summary of the method: as §3

[26] = test system: Cyperus esculentus; assay: as above; conditions: application rate 320 g/ha
Summary of the method: as §3

[27] = test system: Avena fatua; assay: as above; conditions: application rate 320 g/ha
Summary of the method: as §3

[28] = test system: Matricaria inodora; assay: as above
[29] = test system: Alopecurus myosuroides; assay: Herbicidal action post-emergence, greenhouse pot test; conditions: scored visually after about 3 weeks vs untreated controls
Summary of the method: as §1

[30] = test system: Digitaria sanguinalis; assay: as above; conditions: application rate 20 g/ha
[31] = test system: Zea mays; assay: Crop compatibility post-emergence, greenhouse pot test
Summary of the method: as §2

[32] = test system: Oryza sativa; assay: as above
Summary of the method: as §2

[33] = test system: Avena fatua; assay: Herbicidal action post-emergence, greenhouse pot test; conditions: application rate 80 g/ha
Summary of the method: as §1

SMILES	Stellaria media (Efficacy in %) ([1]; application rate 80 g/ha)	Pharbitis purpurea (Efficacy in %) ([4]; application rate 80 g/ha)	Echinochloa crus-galli (Efficacy in %) ([5]; application rate 80 g/ha)	Polygonum convolvulus (Efficacy in %) ([6]; application rate 80 g/ha)	Abutilon theophrasti (Efficacy in %) ([7]; application rate 80 g/ha)	Lolium rigidum (Efficacy in %) ([8]; application rate 80 g/ha)	Veronica persica (Efficacy in %) ([9]; application rate 80 g/ha)	Viola tricolor (Efficacy in %) ([11]; application rate 20 g/ha)	Hordeum murinum (Efficacy in %) [15]	Setaria viridis (Efficacy in %) ([16]; application rate 320 g/ha)	Pharbitis purpurea (Efficacy in %) ([17]; application rate 320 g/ha)	Echinochloa crus-galli (Efficacy in %) [18]	Polygonum convolvulus (Efficacy in %) ([19]; application rate 320 g/ha)	Abutilon theophrasti (Efficacy in %) ([20]; application rate 320 g/ha)	Lolium rigidum (Efficacy in %) ([21]; application rate 320 g/ha)	Viola tricolor (Efficacy in %) ([24]; application rate 320 g/ha)	Alopecurus myosuroides (Efficacy in %) [25]	Cyperus esculentus (Efficacy in %) [26]	Avena fatua (Efficacy in %) [27]	Amaranthus retroflexus (Efficacy in %) ([10]; application rate 20 g/ha)	other results
CC(Sc1cc(-n2c(=O)cc(C(F)(F)F)n(C)c2=O)c(F)cc1Cl)C(=O)OCCC(=O)OC(C)(C)C (stereo not drawn) [I.1-5]	100%	100%	100%	100%	100%	80%	100%	100%	100%	100%	100%	100%	100%	100%	100%	100%	100%	80%	100%		Hordeum murinum (Efficacy in %) ([2]; application rate 80 g/ha): 80%; Setaria viridis (Efficacy in %) ([3]; application rate 80 g/ha): 100%; Amaranthus retroflexus (Efficacy in %) ([10]; application rate 80 g/ha): 100%; Matricaria inodora (Efficacy in %) ([12]; application rate 80 g/ha): 100%; Triticum aestivum (Efficacy in %) ([13]; application rate 80 g/ha): 20%; Stellaria media (Efficacy in %) ([14]; application rate 80 g/ha): 100%; Veronica persica (Efficacy in %) ([22]; application rate 320 g/ha): 100%; Amaranthus retroflexus (Efficacy in %) ([23]; application rate 80 g/ha): 100%; Matricaria inodora (Efficacy in %) ([28]; application rate 80 g/ha): 100%
CC(Sc1cc(-n2c(=O)cc(C(F)(F)F)n(C)c2=O)c(F)cc1Cl)C(=O)OCC(=O)OCc1ccccc1 (stereo not drawn) [I.1-46]								100%												100%	Stellaria media (Efficacy in %) ([1]; application rate 20 g/ha): 100%; Hordeum murinum (Efficacy in %) ([2]; application rate 20 g/ha): 100%; Setaria viridis (Efficacy in %) ([3]; application rate 20 g/ha): 100%; Pharbitis purpurea (Efficacy in %) ([4]; application rate 20 g/ha): 100%; Echinochloa crus-galli (Efficacy in %) ([5]; application rate 20 g/ha): 100%; Polygonum convolvulus (Efficacy in %) ([6]; application rate 20 g/ha): 100%; Abutilon theophrasti (Efficacy in %) ([7]; application rate 20 g/ha): 100%; Lolium rigidum (Efficacy in %) ([8]; application rate 20 g/ha): 80%; Veronica persica (Efficacy in %) ([9]; application rate 20 g/ha): 100%; Alopecurus myosuroides (Efficacy in %) ([29]; application rate 20 g/ha): 80%; Matricaria inodora (Efficacy in %) ([12]; application rate 20 g/ha): 100%; Digitaria sanguinalis (Efficacy in %) [30]: 100%; Triticum aestivum (Efficacy in %) ([13]; application rate 20 g/ha): 20%
COC(=O)C1(OC(=O)C(C)Sc2cc(-n3c(=O)cc(C(F)(F)F)n(C)c3=O)c(F)cc2Cl)CC1 (stereo not drawn) [I.1-102]								100%												100%	Stellaria media (Efficacy in %) ([1]; application rate 20 g/ha): 80%; Hordeum murinum (Efficacy in %) ([2]; application rate 20 g/ha): 100%; Setaria viridis (Efficacy in %) ([3]; application rate 20 g/ha): 100%; Pharbitis purpurea (Efficacy in %) ([4]; application rate 20 g/ha): 100%; Echinochloa crus-galli (Efficacy in %) ([5]; application rate 20 g/ha): 100%; Polygonum convolvulus (Efficacy in %) ([6]; application rate 20 g/ha): 100%; Abutilon theophrasti (Efficacy in %) ([7]; application rate 20 g/ha): 100%; Lolium rigidum (Efficacy in %) ([8]; application rate 20 g/ha): 80%; Veronica persica (Efficacy in %) ([9]; application rate 20 g/ha): 100%; Matricaria inodora (Efficacy in %) ([12]; application rate 20 g/ha): 100%; Digitaria sanguinalis (Efficacy in %) [30]: 100%; Zea mays (Efficacy in %) ([31]; application rate 5 g/ha): 0%; Oryza sativa (Efficacy in %) ([32]; application rate 5 g/ha): 0%
CNC(=O)COC(=O)C(C)Sc1cc(-n2c(=O)cc(C(F)(F)F)n(C)c2=O)c(F)cc1Cl (stereo not drawn) [I.1-182]	100%	100%	100%	100%	100%	100%	100%	100%	90%	100%	100%	100%	100%	100%	100%	100%	80%	80%	90%		Amaranthus retroflexus (Efficacy in %) ([10]; application rate 80 g/ha): 100%; Alopecurus myosuroides (Efficacy in %) ([29]; application rate 80 g/ha): 80%; Matricaria inodora (Efficacy in %) ([12]; application rate 80 g/ha): 100%; Avena fatua (Efficacy in %) [33]: 90%; Zea mays (Efficacy in %) ([31]; application rate 20 g/ha): 20%; Oryza sativa (Efficacy in %) ([32]; application rate 20 g/ha): 20%; Triticum aestivum (Efficacy in %) ([13]; application rate 5 g/ha): 10%; Stellaria media (Efficacy in %) ([14]; application rate 320 g/ha): 100%; Veronica persica (Efficacy in %) ([22]; application rate 320 g/ha): 100%; Amaranthus retroflexus (Efficacy in %) ([23]; application rate 80 g/ha): 100%; Matricaria inodora (Efficacy in %) ([28]; application rate 320 g/ha): 100%
CC(C)NC(=O)COC(=O)C(C)Sc1cc(-n2c(=O)cc(C(F)(F)F)n(C)c2=O)c(F)cc1Cl (stereo not drawn) [I.1-184]	100%	100%	100%	100%	100%	100%	100%		90%			100%			100%		90%		90%		Hordeum murinum (Efficacy in %) ([2]; application rate 80 g/ha): 80%; Setaria viridis (Efficacy in %) ([3]; application rate 20 g/ha): 100%; Amaranthus retroflexus (Efficacy in %) ([10]; application rate 80 g/ha): 100%; Viola tricolor (Efficacy in %) ([11]; application rate 80 g/ha): 100%; Alopecurus myosuroides (Efficacy in %) ([29]; application rate 80 g/ha): 80%; Matricaria inodora (Efficacy in %) ([12]; application rate 80 g/ha): 100%; Zea mays (Efficacy in %) ([31]; application rate 20 g/ha): 20%; Stellaria media (Efficacy in %) ([14]; application rate 80 g/ha): 100%; Setaria viridis (Efficacy in %) ([16]; application rate 80 g/ha): 100%; Pharbitis purpurea (Efficacy in %) ([17]; application rate 80 g/ha): 100%; Polygonum convolvulus (Efficacy in %) ([19]; application rate 80 g/ha): 100%; Abutilon theophrasti (Efficacy in %) ([20]; application rate 80 g/ha): 100%; Veronica persica (Efficacy in %) ([22]; application rate 80 g/ha): 100%; Amaranthus retroflexus (Efficacy in %) ([23]; application rate 80 g/ha): 100%; Viola tricolor (Efficacy in %) ([24]; application rate 80 g/ha): 100%; Matricaria inodora (Efficacy in %) ([28]; application rate 80 g/ha): 100%
COC(=O)CCOC(=O)CSc1cc(-n2c(=O)cc(C(F)(F)F)n(C)c2=O)c(F)cc1Cl [I.8-2]		100%	100%		100%	90%	100%		80%	100%	100%	100%	100%	100%		100%	80%	90%	80%	100%	Stellaria media (Efficacy in %) ([1]; application rate 20 g/ha): 100%; Hordeum murinum (Efficacy in %) ([2]; application rate 20 g/ha): 80%; Setaria viridis (Efficacy in %) ([3]; application rate 80 g/ha): 100%; Polygonum convolvulus (Efficacy in %) ([6]; application rate 20 g/ha): 100%; Viola tricolor (Efficacy in %) ([11]; application rate 80 g/ha): 100%; Alopecurus myosuroides (Efficacy in %) ([29]; application rate 80 g/ha): 80%; Matricaria inodora (Efficacy in %) ([12]; application rate 20 g/ha): 100%; Stellaria media (Efficacy in %) ([14]; application rate 320 g/ha): 100%; Lolium rigidum (Efficacy in %) ([21]; application rate 80 g/ha): 90%; Veronica persica (Efficacy in %) ([22]; application rate 80 g/ha): 100%; Amaranthus retroflexus (Efficacy in %) ([23]; application rate 20 g/ha): 100%; Matricaria inodora (Efficacy in %) ([28]; application rate 320 g/ha): 100%
COC(=O)COC(=O)CSc1cc(-n2c(=O)cc(C(F)(F)F)n(C)c2=O)c(F)cc1Cl [I.8-42]	100%	100%	100%	100%	100%		100%		80%	100%	100%	100%	100%	100%	80%	100%		100%	80%	100%	Hordeum murinum (Efficacy in %) ([2]; application rate 80 g/ha): 80%; Setaria viridis (Efficacy in %) ([3]; application rate 80 g/ha): 100%; Viola tricolor (Efficacy in %) ([11]; application rate 80 g/ha): 100%; Matricaria inodora (Efficacy in %) ([12]; application rate 20 g/ha): 100%; Oryza sativa (Efficacy in %) ([32]; application rate 20 g/ha): 0%; Triticum aestivum (Efficacy in %) ([13]; application rate 5 g/ha): 20%; Stellaria media (Efficacy in %) ([14]; application rate 320 g/ha): 100%; Veronica persica (Efficacy in %) ([22]; application rate 320 g/ha): 100%; Amaranthus retroflexus (Efficacy in %) ([23]; application rate 20 g/ha): 100%; Matricaria inodora (Efficacy in %) ([28]; application rate 320 g/ha): 100%

From US11274083B2, “Substituted thiophenyl uracils, salts thereof and the use thereof as herbicidal agents” (Syngenta Crop Protection AG, priority 2017, dated 2022)
